Reference: the supplement of paper PMC10307832

What was measured:
Test in all cases: relative viability (nuclei count vs DMSO), 5 days (fraction); higher = more cells survive
[1] = compound: C[C@@H](N)c1ccc(C(=O)Nc2ccnc3[nH]ccc23)cc1
In short: (§1)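 Acceptance criteria were a control CV below 25% and at least one doubling per plate. Lung cancer cell lines in 1536-well plates got five library-drug doses (not always all listed) √10 apart by pinning and were left 5 days with no medium change. Viability divides treated-well nuclei by vehicle-well nuclei and is the median across plates. Nuclei were counted by MetaXpress from 4× Hoechst images.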

[2] = compound: C1CNCCC1C2=CC(=NN2)C3=CC=NC=C3
In short: as §1

[3] = compound: O[C@H]1CC[C@H](Nc2ncc3nc(Nc4c(F)cc(F)cc4F)n([C@H]4CCOC4)c3n2)CC1 [Tanzisertib]
In short: as §1

Cell Line | relative viability ([1]; 0.04 µM) | relative viability ([1]; 0.1265 µM) | relative viability ([1]; 0.4 µM) | relative viability ([1]; 1.265 µM) | relative viability ([1]; 4 µM) | relative viability ([2]; 0.08 µM) | relative viability ([2]; 0.8 µM) | relative viability ([2]; 2.53 µM) | relative viability ([2]; 8 µM) | relative viability ([3]; 0.08 µM) | relative viability ([3]; 0.253 µM) | relative viability ([3]; 0.8 µM) | relative viability ([3]; 2.53 µM) | relative viability ([3]; 8 µM)
201T | 1.01 | 0.971 | 1.01 | 0.976 | 1.12 | 0.97 | 0.993 | 0.983 | 0.938 | 1 | 0.969 | 0.997 | 0.933 | 0.898
A549 | 1.02 | 1.03 | 1.19 | 0.944 | 0.829 | 0.872 | 1.03 | 1.07 | 1.05 | 1 | 0.99 | 0.976 | 1 | 0.856
A-427 | 0.862 | 1.07 | 0.975 | – | 0.906 | 0.953 | 1.05 | 0.984 | 1.05 | 0.997 | 0.998 | 1.07 | 1.08 | 0.789
ABC-1 | 0.767 | 1.07 | 0.918 | 0.579 | 0.901 | 0.975 | 0.817 | 1.07 | 1.02 | 1.03 | 0.995 | 0.882 | 1 | 0.957
BEN | 0.927 | 0.954 | 1.04 | 1.01 | 0.718 | 0.825 | 0.888 | 0.984 | 1.04 | 0.977 | 1.01 | 0.997 | 1.08 | 0.832
CAL-12T | 1.11 | 1.04 | 1.23 | 0.945 | 0.839 | 1.01 | 1.18 | 1.08 | 0.99 | 1.03 | 1.09 | 1.08 | 1.05 | 1.03
COR-L23 | 0.913 | 1.17 | 0.941 | 0.878 | 0.646 | 1.02 | 1.19 | 0.991 | 0.982 | 1.06 | 1.04 | 1.07 | 1.06 | 1.04
COR-L 105 | 0.91 | 0.964 | 1.11 | 0.7 | 0.735 | 0.857 | 0.925 | 1.02 | 0.923 | 1.08 | 0.899 | 0.918 | 1.15 | 0.706
Calu-6 | 1.02 | 1.03 | 1.03 | 0.935 | 0.826 | 0.964 | 1.02 | 1.01 | 0.998 | 1.01 | 1.01 | 1.01 | 1.01 | 0.931
ChaGo-K-1 | 1.08 | 0.999 | 1.02 | 0.804 | 0.888 | 0.93 | 1.05 | 0.952 | 0.91 | 1.05 | 0.999 | 0.984 | 0.992 | 0.986
EBC-1 | 1.06 | 1.01 | 1.08 | 1.01 | 0.991 | 1.09 | 0.981 | 1.06 | 1.02 | 1.16 | 0.991 | 0.971 | 0.871 | 0.825
EKVX | 1.09 | 1.12 | 1.12 | 0.811 | 0.885 | 1.03 | 0.877 | 1.12 | 0.989 | 1.08 | 1.05 | 0.96 | 0.901 | 0.723
EMC-BAC-2 | 0.769 | 1.02 | 0.945 | 0.789 | 0.795 | 0.78 | 0.97 | 1.07 | 0.98 | 0.989 | 1.31 | 0.99 | 1.04 | 0.82
EPLC-272H | 0.9 | 0.973 | 1.11 | 0.356 | 0.791 | 0.902 | 0.94 | 0.929 | 0.98 | 1.14 | 0.95 | 1.09 | 0.908 | 0.761
H3255 | 1 | 1.21 | 1.16 | 1.01 | 0.925 | 0.934 | 0.952 | 1.2 | 1 | 0.998 | 1.03 | 1.08 | 0.957 | 0.599
HARA | 1 | 0.929 | 1.11 | 0.689 | 0.779 | 1.05 | 0.898 | 1.16 | 0.928 | 1.12 | 1.12 | 0.932 | 1.05 | 0.725
HCC-15 | 1.03 | 0.971 | 1.02 | 0.623 | 0.908 | 0.987 | 1.1 | 0.98 | 0.939 | 1.16 | 1 | 1.04 | 0.944 | 0.768
HCC-44 | 0.95 | 0.988 | 1.03 | 0.927 | 0.941 | 0.999 | 1.05 | 1 | 0.999 | 0.985 | 1.11 | 1.07 | 1.04 | 1.11
HCC-78 | 1.23 | 0.933 | 1.23 | 0.72 | 0.92 | 1.04 | 0.706 | 1 | 1.03 | 1.06 | 1.02 | 0.986 | 0.97 | 0.682
HCC-366 | 1.01 | 1.04 | 1.09 | – | 1.03 | 0.969 | 0.995 | 1.01 | 0.999 | 0.981 | 1.03 | 1.01 | 0.993 | 0.487
HCC-827 | 0.901 | 1.13 | 1.05 | 1.05 | 0.938 | 1.05 | 1.04 | 1.06 | 1.01 | 1.07 | 1.05 | 1.03 | 1.02 | 0.663
HOP-62 | 0.957 | 0.949 | 1.03 | 0.884 | 0.899 | 1.09 | 1.11 | 1.05 | 1.02 | 1.1 | 1.03 | 1 | 1.12 | 1.03
IA-LM | 1.13 | 1.1 | 1.4 | 1.16 | 1.12 | 1 | 1.01 | 0.996 | 1.02 | 1.08 | 0.989 | 0.989 | 0.96 | 0.94
LC-2-ad | 0.916 | 0.916 | 1.02 | 0.719 | 0.838 | 0.978 | 1.09 | 1 | 0.964 | 1.1 | 1.03 | 1.09 | 1.03 | 0.506
